Experiments:
CYP2D6 = CYP2D6 (Homo sapiens, UniProt P10635); experiment: Time-dependent; assay type: in vitro ADME; conditions: 30 min pre‐incubation with/without NADPH; dextromethorphan N‐demethylation
CYP2C19 [1] = target: T1, CYP2C19 (Homo sapiens, UniProt P33261); experiment: in vitro; assay type: in vitro ADME
CYP2C8 = target: T2, CYP2C8 (Homo sapiens, UniProt P10632); experiment: Time-dependent; assay type: in vitro ADME; conditions: 30 min pre‐incubation with/without NADPH; paclitaxel 6α‐hydroxylation
T2 sequence (P10632 1-490): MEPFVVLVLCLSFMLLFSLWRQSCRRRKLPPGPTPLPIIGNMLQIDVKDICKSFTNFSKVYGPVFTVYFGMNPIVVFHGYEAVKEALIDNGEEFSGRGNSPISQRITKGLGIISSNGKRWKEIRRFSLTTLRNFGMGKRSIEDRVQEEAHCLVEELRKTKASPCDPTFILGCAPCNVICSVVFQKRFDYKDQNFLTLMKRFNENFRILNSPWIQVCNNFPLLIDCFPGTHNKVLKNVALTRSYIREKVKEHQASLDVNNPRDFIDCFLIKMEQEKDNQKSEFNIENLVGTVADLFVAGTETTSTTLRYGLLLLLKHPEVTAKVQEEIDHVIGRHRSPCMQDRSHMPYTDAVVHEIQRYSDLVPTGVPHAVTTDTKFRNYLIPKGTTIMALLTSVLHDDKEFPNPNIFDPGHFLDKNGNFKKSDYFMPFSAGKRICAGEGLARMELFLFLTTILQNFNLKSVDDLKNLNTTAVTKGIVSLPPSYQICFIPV

CYP2A6 = target: T3, CYP2A6 (Homo sapiens, UniProt P11509); experiment: Competitive; assay type: in vitro ADME
T3 sequence (P11509 1-494): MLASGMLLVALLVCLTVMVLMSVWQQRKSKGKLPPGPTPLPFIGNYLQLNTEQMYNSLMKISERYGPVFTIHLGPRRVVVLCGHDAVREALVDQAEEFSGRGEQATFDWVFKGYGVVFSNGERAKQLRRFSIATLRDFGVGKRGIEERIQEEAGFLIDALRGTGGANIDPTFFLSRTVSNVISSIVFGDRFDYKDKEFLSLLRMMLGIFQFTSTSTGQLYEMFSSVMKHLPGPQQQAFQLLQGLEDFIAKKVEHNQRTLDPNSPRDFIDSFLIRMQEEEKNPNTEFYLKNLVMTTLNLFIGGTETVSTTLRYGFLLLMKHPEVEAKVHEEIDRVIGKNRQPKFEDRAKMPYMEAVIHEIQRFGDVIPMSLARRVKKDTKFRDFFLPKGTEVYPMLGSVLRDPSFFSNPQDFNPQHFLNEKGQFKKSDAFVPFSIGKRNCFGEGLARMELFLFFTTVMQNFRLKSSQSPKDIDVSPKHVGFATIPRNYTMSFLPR

CYP3A4 [2] = target: T4, CYP3A4 (Homo sapiens, UniProt P08684); conditions: cited from earlier work
CYP1A2 = target: T5, CYP1A2 (Homo sapiens, UniProt P05177); experiment: Competitive; assay type: in vitro ADME
T5 sequence (P05177 1-516): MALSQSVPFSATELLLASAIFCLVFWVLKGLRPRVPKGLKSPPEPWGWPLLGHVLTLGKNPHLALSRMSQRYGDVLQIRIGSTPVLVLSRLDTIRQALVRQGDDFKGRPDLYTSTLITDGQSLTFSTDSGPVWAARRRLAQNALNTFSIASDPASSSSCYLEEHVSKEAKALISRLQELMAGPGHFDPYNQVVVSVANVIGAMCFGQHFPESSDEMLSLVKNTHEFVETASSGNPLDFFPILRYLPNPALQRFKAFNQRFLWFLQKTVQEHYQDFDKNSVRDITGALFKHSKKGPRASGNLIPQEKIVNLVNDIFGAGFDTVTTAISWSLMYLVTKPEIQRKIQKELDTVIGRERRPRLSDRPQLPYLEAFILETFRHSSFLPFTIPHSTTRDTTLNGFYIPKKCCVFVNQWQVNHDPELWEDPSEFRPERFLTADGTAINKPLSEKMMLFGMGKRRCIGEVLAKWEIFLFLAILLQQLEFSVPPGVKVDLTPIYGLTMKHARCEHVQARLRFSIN

healthy subjects = experiment: Safety and tolerability in the clinical study
CYP3A4 [3] = target: T4, CYP3A4; experiment: Time-dependent; assay type: in vitro ADME; conditions: for IC50 shift: 30 min pre‐incubation with/without NADPH
CYP3A4 [4] = target: T4, CYP3A4; experiment: Cocktail DDI study: PK of midazolam and 1-OH midazolam with/without nivasorexant
CYP3A4 [5] = target: T4, CYP3A4; experiment: Covalent binding; assay type: in vitro ADME
[6] = Plasma pharmacokinetics of nivasorexant 100 mg b.i.d. in healthy subjects; conditions: for unbound peak concentration: corrected for molecular weight and f u,p 0.01
CYP2C19 [7] = target: T1, CYP2C19; experiment: Covalent binding; assay type: in vitro ADME; conditions: data not shown
CYP2C19 [8] = target: T1, CYP2C19; experiment: biochemical; assay type: in vitro ADME
[9] = after 8 days / repeated 100 mg b.i.d., steady state

T4 sequence (P08684 whole entry): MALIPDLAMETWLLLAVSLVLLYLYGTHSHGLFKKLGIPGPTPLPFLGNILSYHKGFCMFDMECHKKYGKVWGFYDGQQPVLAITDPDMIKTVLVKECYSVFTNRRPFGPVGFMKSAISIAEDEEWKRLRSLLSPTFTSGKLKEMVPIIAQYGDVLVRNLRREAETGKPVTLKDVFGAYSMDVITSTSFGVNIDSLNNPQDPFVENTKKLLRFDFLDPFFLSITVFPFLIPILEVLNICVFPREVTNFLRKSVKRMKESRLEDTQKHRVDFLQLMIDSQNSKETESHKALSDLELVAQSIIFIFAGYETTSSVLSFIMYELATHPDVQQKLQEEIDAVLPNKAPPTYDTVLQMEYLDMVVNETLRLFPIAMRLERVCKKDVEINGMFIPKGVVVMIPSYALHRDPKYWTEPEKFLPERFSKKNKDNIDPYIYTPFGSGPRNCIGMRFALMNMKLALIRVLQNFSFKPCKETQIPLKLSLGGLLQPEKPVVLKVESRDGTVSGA
T1 sequence (P33261 whole entry): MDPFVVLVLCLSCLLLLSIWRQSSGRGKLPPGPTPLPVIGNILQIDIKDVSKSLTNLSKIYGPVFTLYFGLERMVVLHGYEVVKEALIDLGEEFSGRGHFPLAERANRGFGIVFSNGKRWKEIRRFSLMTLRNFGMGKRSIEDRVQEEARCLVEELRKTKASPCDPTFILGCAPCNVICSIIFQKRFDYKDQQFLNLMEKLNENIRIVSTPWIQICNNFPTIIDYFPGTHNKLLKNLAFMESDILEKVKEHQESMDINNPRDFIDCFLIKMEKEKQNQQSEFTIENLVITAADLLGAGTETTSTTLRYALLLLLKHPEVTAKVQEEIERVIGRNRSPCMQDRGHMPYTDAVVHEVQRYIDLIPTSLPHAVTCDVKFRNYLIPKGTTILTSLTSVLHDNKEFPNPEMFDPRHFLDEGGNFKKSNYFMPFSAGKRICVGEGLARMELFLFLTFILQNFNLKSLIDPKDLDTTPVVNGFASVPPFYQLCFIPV
CYP2D6, sequence (P10635 whole entry): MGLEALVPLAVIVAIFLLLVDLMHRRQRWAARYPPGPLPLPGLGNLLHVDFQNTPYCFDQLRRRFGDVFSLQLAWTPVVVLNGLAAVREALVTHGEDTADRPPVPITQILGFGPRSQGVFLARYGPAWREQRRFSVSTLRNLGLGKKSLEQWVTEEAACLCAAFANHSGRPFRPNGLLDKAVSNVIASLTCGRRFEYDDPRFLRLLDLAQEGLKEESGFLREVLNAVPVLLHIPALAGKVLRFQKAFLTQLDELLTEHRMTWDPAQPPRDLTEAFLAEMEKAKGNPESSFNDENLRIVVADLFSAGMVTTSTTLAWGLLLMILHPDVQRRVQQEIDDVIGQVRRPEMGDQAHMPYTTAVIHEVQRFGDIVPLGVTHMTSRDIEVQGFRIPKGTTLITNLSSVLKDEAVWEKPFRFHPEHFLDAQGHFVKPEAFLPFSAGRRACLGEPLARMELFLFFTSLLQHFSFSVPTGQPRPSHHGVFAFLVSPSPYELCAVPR

Structure (SMILES): Cc1ccc(C(=O)N2CCOC[C@H]2Cc2cccc(-n3nccn3)c2)c(-n2nccn2)c1 [nivasorexant]
- IC50 shift (CYP2D6): no effect and none
- IC50 shift at 30 min (CYP2C19 [1]; human, recombinant enzyme): 67
- K I (inhibition constant of the CYP enzyme inactivation) (CYP2C19 [1]; recombinant CYP2C19): 4.2 µM
- k inact (rate of enzyme inactivation) (CYP2C19 [1]; recombinant CYP2C19): 0.079 min⁻¹
- IC50 shift (CYP2C8): no effect and none
- IC50 (CYP2A6): > 100 µM
- CYP2C9 inhibitor classification according to regulatory guidance (CYP2C9; [9]): weak (≥1.25‐ to <2‐fold)
- perpetrator DDI potential with respect to CYP2C9 (in words) (CYP2C9; initial administration on Day 8, 90% CIs of GMR within 0.8–1.25): lack of perpetrator DDI potential
- time to steady‐state conditions (CYP3A4 [2]; 200 mg b.i.d. nivasorexant): 4 to 5 days
- CYP3A4 inhibitor classification (CYP3A4 [2]; after b.i.d. administration of 200 mg for 10 days): moderate (≥ 2‐ to <5‐fold)
- IC50 (CYP1A2): > 100 µM
- safety and tolerability (in words) (healthy subjects; Day 1 to Day 15, healthy subjects): safe and well tolerated
- somnolence, subjects (%) (healthy subjects; Treatment B: cocktail + initial 100 mg nivasorexant, Day 8): 1 (4.5%) subjects (%)
- somnolence, subjects (%) (healthy subjects; Treatment C: nivasorexant 100 mg b.i.d. alone, Day 9–14): 2 (9.1%) subjects (%)
- somnolence, subjects (%) (healthy subjects; Treatment D: cocktail + nivasorexant at steady state, Day 15): 5 (23.8%) subjects (%)
- IC50 shift (CYP3A4 [3]; midazolam 1′‐hydroxylation): none
- IC50 shift (CYP3A4 [3]; testosterone 6β‐hydroxylation): none
- effect of pre‐incubation on CYP3A4 activity (in words, probe not stated) (CYP3A4 [3]; time‐dependent inhibition assay): no pre‐incubation effect
- CYP3A4 inhibitor classification according to regulatory guidance (CYP3A4 [4]; after 1 day of 100 mg b.i.d.): weak (≥1.25‐ to <2‐fold)
- CYP3A4 inhibitor classification according to regulatory guidance (CYP3A4 [4]; [9]): moderate (≥ 2‐ to <5‐fold)
- covalent binding (in words) (CYP3A4 [5]): covalent binding
- time to steady‐state trough concentrations ([6]; 100 mg b.i.d.): 3 to 4 days
- accumulation index (AIX) ([6]; AUCτ Day 15 / AUCτ Day 8, 8 days of 100 mg b.i.d.): 1.8
- unbound peak concentration ([6]; Day 8): 16 nM
- unbound peak concentration ([6]; Day 15): 29 nM
- AUC ([6]; both, human, plasma, oral, AUCτ, Trt D, Day 15, repeated 100 mg b.i.d., geometric mean (95% CI)): 8560 ng·h/mL
- Cmax ([6]; both, human, plasma, oral, C max, Trt D, Day 15, repeated 100 mg b.i.d., steady state, geometric mean (95% CI)): 1250 ng/mL
- t max ([6]; both, human, plasma, oral, t max, Trt D, Day 15, repeated 100 mg b.i.d., median (range)): 2 h
- covalent binding (in words) (CYP2C19 [7]): covalently binds
- IC50 (CYP2C19 [8]): 1.6 µM

Source: PMC10557102 (Pharmacology Research & Perspectives, 2023)
